From patent US8759357B2, “Inhibitors of fatty acid binding protein (FABP)” (Merck Sharp & Dohme Corp., priority 2009, dated 2014)

Experiments:
[1] = target: FABP5 (Homo sapiens, UniProt Q01469); assay: TdCD (Temperature-Dependent Circular Dichroism) assay for FABP5; type: binding; settings: compounds at 50 μM and 25 μM; Kd calculated at T=20° C.; 50% uncertainty
From the text: [formula] (see Brandts et al and Mayhood et al, shown above) where ΔHL (T) is the van't Hoff enthalpy of ligand binding at temperature T and ΔCpL is the heat capacity upon ligand binding. For simplicity, the ΔCpL and ΔHL (T) were set to zero and −7 kcal/mol respectively. (The ΔCpL accounts for minimal portion of total protein-ligand binding energetics and is therefore set to zero (For example, see Hossein Naghibi et al, Proc. Natl. Acad. Sci. 92, 5597-5599 (1995), where ΔCpL was estimated to ˜2% of ΔHL at 25° C. obtained from calorimetric study of binding Rnase A and 2′-CMP)). TdCD (Temperature-Dependent Circular Dichroism) Assay for FABP3/4/5
JASCO 810 spectropolarimeter was used to measure Circular Dichroism (CD) spectra and temperature-dependent protein unfolding profiles. The instrument is equipped with a 6-cell piezoelectric temperature controller. Ellipticity was monitored at 226 nm as a function of temperature with a 1 mm path length cell. The scan rate was 1° C./min with a 4 s response time and 30 s equilibration between measurements.
Stock protein FABP5 (3.5 mgs/mL), FABP4 (1.8 mgs/mL) and FABP3 (3 mgs/mL) were diluted to 10-15 μM with 25 mM HEPES pH 7.5, 150 mM NaCl, 1 mM DTT. 10 mM stocks of individual compounds were made in 100% DMSO. The compounds were tested at 50 μM and 25 μM concentrations. DMSO was added to protein-alone (apo) samples to 1% to compensate for DMSO amounts in protein+ligand samples. Data were analyzed using Jasco software and the midpoints of the protein unfolding Transitions™, and the ligand binding constants (KL) were calculated as previously described (See, for example, Mayhood et al, Analytical Biochemistry 345 (2005) 187-197; Smith et al, Biochemistry 46 (2007) 1358-1367; Brandts et al, Biochemistry 29 (1990) 6927-6940; and Matulis et al, Biochemistry 44 (2005) 5258-5266).
Briefly, the To (midpoint of unfolding for the unliganded protein) was calculated from best fit of the unfolding data to the equation below:
[formula] Where, Yobs is the observed ellipticity value at any temperature T, Yn and Yu are the predicted ellipticity values for fully folded and unfolded species, respectively, mn and mu are slope correction for changes in Yn and Yu with respect to changes in temperature. To is the midpoint temperature at which the unliganded protein unfolds and ΔHu and ΔCpu are the heat of unfolding and heat capacity of unfolding, respectively for the unliganded species.
In presence of ligand, the midpoint Temperature™ defines where the equilibrium concentrations of unfolded and folded species are equal. Incorporation of the unliganded free energy of binding and subsequent thermodynamic substitution yielded the binding constant of the ligand at the Tm value of unfolding:
[formula] where, T0 is the midpoint of unfolding for unliganded protein and Tm is the midpoint of unfolding in presence of ligand. [LTm] is free ligand at Tm.
Based on estimates for enthalpy of binding, ΔHL (estimated to be −7 kcal/mol) and ligand binding heat capacity ΔCpL (set to be zero), the ligand binding association constant (KL) at temperature T=20° C. were calculated as below. Based on reasonable boundary change of the estimated ligand binding ΔHL, a 50% uncertainty was uniformly assigned to the calculated TdCD Kd (1/KL) values at T=20° C.

[2] = target: FABP4 (Homo sapiens, UniProt P15090); assay: TdF (Temperature Dependence Fluorescence) thermal shift assay for FABP4; type: binding; settings: 3 μM protein; 15, 50 or 100 μM compound; Kd from ΔTm
From the text: TdF (Temperature Dependence Fluorescence) Assay for FABP3 and FABP4
The SAR (Structure Activity Relationship) for FABP3 and FABP4 ligands covered by this invention was interrogated using the TdF (Temperature Dependence Fluorescence) assay or best known as thermal shift assay (M. W. Pantoliana et al, J. Biomol. Screen 6 (2001) 429-440). The TdF assay was mainly conducted in the 96-well based CHROMO-4 real time fluorescence plate reader (BioRad). The Sypro Orange (Sigma-Aldrich), environmentally sensitive fluorescence dye, was used to monitor the protein folding-unfolding transition. Protein-ligand binding was gauged by the change (or shift) in the unfolding transition temperature (ΔTm) acquired at protein alone with respect to protein in the presence of ligand of interest.
The compound of interest was first prepared in DMSO stock (typical concentration: 10 mM). Sample of 20 μL was then added into the 96-well PCR plate, where it consisted of 3 μM protein (FABP4 or FABP3) and 15, 50 or 100 μM compound (depending on compound's solubility) in buffer (25 mM HEPES, 150 mM NaCl, pH=7.5 and 1 mM DTT) incorporated with Sypro Orange dye (5× final concentration). Final percentage of DMSO resided in the sample was 2%. The sample plate was heated from 30° C. to 90° C. with thermal ramping rate of 1° C./min. The fluorescence signals were acquired with excitation and emission wavelengths centered at 490 and 560 nm respectively. The instrument thermal stability was ±0.2° C. The melting Temperatures™ for FABP4 and FABP3 proteins under aforementioned conditions occurred at 61.0±0.2° C. and 64.8±0.2° C. respectively.
Theoretical Basis for TdF-Based Ligand Binding Affinity Constant
The derivation of TdF-based ligand binding affinity constant (Kd) followed closely those previously formulated by Brandts and Lin, Biochemistry 29 (1990) 6927-6940. In brief, the binding constant of the ligand at the Tm is expressed as below:
[formula] where T0 is the midpoint of unfolding for unliganded protein and Tm is the midpoint of unfolding in presence of ligand. [LTm] is free ligand at Tm. The ΔHu and ΔCpu are the enthalpy of unfolding and heat capacity change of unfolding for the protein respectively. The ΔCPu is proportional to the size of protein and is an approximate quantity in the above equation (empirically, ΔCpu=(MW of protein/115)*14 cal/mol*K). Following algorithm derived by Mayhood et al, (Analytical Biochemistry 345 (2005) 187-197), the T0 and ΔHu can be determined separately from nonlinear regression fitting the temperature dependent protein alone curve to the following equation: […]
Where F(T) is the observed fluorescence intensity at any temperature T, Yn and Yu are the predicted fluorescence intensities for fully folded and unfolded protein, respectively; mn and mu are slope correction for changes in Yn and Yu with respect to changes in temperature (analogously replace T0 with Tm in the above equation for liganded protein to yield Tm). The nonlinear regression fitting in general readily reaches convergence by properly constraining the initial values for the fitting parameters (e.g. the initial “guess” for the ΔHu was constrained to 120 kcal/mol; initial Yn and mn were set to 1 and zero to best represent the melting curve along the low temperature region; negative slope of −0.5 was initially chosen for mu; initial Tm was also constrained to 50° C.).
Finally, the ligand binding affinity constant at any temperature T 25° C.) can be thermodynamically connected to the preceding KL™ via
[formula] (see Brandts et al and Mayhood et al, shown above) where ΔHL (T) is the van't Hoff enthalpy of ligand binding at temperature T and ΔCpL is the heat capacity upon ligand binding. For simplicity, the ΔCpL and ΔHL (T) were set to zero and −7 kcal/mol respectively. […]

FABP5, sequence (Q01469 whole entry): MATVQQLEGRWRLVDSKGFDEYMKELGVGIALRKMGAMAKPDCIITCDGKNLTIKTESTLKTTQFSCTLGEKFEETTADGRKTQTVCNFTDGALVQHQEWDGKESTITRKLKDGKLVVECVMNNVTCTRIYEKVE
FABP4, sequence (P15090 whole entry): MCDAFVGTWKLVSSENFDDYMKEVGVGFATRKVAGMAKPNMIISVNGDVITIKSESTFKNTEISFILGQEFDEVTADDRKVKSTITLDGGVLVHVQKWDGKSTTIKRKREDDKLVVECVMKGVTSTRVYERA

## CN(Cc1ccc(C(F)(F)F)cc1)Cc1cc(=O)n2nc(-c3ccccc3)nc2[nH]1 [1-53]
[1]
  Kd: 500 to 100000 nM
[2]
  Kd: 200 to 5000 nM

## O=c1cc(COC(c2ccccc2)C2CC2)[nH]c2nc(-c3ccccc3)nn12 (stereo not shown) [1-116]
[1]
  Kd: 500 to 100000 nM
[2]
  Kd: 200 to 5000 nM

## CC(OCc1cc(=O)n2nc(-c3ccccc3)nc2[nH]1)c1ccccc1Cl (stereo not shown) [1-117]
[1]
  Kd: 500 to 100000 nM
[2]
  Kd: 1 to 200 nM

## O=c1cc(COCC2(c3cccc(F)c3)CC2)[nH]c2nc(-c3ccccc3)nn12 [1-119]
[1]
  Kd: 500 to 100000 nM
[2]
  Kd: 1 to 200 nM

## CC(C)(Cc1ccccc1)OCc1cc(=O)n2nc(-c3ccccc3)nc2[nH]1 [1-120]
[1]
  Kd: 500 to 100000 nM
[2]
  Kd: 1 to 200 nM

## CCC(OCc1cc(=O)n2nc(-c3ccccc3)nc2[nH]1)C1CCCCC1 (stereo not shown) [1-121]
[1]
  Kd: 500 to 100000 nM
[2]
  Kd: 1 to 200 nM

## CCC[C@H](OCc1cc(=O)n2nc(-c3ccccc3)nc2[nH]1)c1ccccc1 [1-122]
[1]
  Kd: 500 to 100000 nM
[2]
  Kd: > 5000 nM

## CC[C@H](OCc1cc(=O)n2nc(-c3ccccc3)nc2[nH]1)c1ccccc1 [1-123]
[1]
  Kd: 500 to 100000 nM
[2]
  Kd: > 5000 nM

## CC(OCc1cc(=O)n2nc(-c3ccccc3)nc2[nH]1)C1CCCCC1 (stereo not shown) [1-124]
[1]
  Kd: 500 to 100000 nM
[2]
  Kd: 1 to 200 nM

## O=c1cc(COCC2CCCCC2)[nH]c2nc(-c3ccccc3)nn12 [1-125]
[1]
  Kd: 500 to 100000 nM
[2]
  Kd: 1 to 200 nM

## O=c1cc(COC(CC2CC2)c2ccccc2)[nH]c2nc(-c3ccccc3)nn12 (stereo not shown) [1-126]
[1]
  Kd: 500 to 100000 nM
[2]
  Kd: 200 to 5000 nM

## O=c1cc(COCc2cccnc2F)[nH]c2nc(-c3ccccc3)nn12 [1-127]
[1]
  Kd: 500 to 100000 nM
[2]
  Kd: 200 to 5000 nM

## O=c1cc(COCc2cccnc2Cl)[nH]c2nc(-c3ccccc3)nn12 [1-128]
[1]
  Kd: 500 to 100000 nM
[2]
  Kd: 200 to 5000 nM

## O=c1cc(COCC2(c3cccc(C(F)(F)F)c3)CC2)[nH]c2nc(-c3ccccc3)nn12 [1-129]
[1]
  Kd: 500 to 100000 nM
[2]
  Kd: 1 to 200 nM

## C=CCC(OCc1cc(=O)n2nc(-c3ccccc3)nc2[nH]1)c1ccccc1Cl (stereo not shown) [1-130]
[1]
  Kd: 500 to 100000 nM
[2]
  Kd: 1 to 200 nM

## CC(OCc1cc(=O)n2nc(-c3ccccc3)nc2[nH]1)c1ccccc1F (stereo not shown) [1-132]
[1]
  Kd: 500 to 100000 nM
[2]
  Kd: 200 to 5000 nM

## O=C(O)c1cccc(COCc2cc(=O)n3nc(-c4ccccc4)nc3[nH]2)c1 [1-133]
[1]
  Kd: 500 to 100000 nM
[2]
  Kd: 200 to 5000 nM

## O=c1cc(CNC2(c3cccc(C(F)(F)F)c3)CC2)[nH]c2nc(-c3ccccc3)nn12 [1-137]
[1]
  Kd: 500 to 100000 nM
[2]
  Kd: 200 to 5000 nM

## O=c1cc(CNCC2(c3cccc(C(F)(F)F)c3)CC2)[nH]c2nc(-c3ccccc3)nn12 [1-138]
[1]
  Kd: 500 to 100000 nM
[2]
  Kd: 200 to 5000 nM

## O=c1cc(COCc2ccccc2C(F)(F)F)[nH]c2nc(-c3ccccc3)nn12 [1-140]
[1]
  Kd: 500 to 100000 nM
[2]
  Kd: > 5000 nM

## O=c1cc(COCc2ccccc2)[nH]c2nc(-c3ccccc3)nn12 [1-144]
[1]
  Kd: 500 to 100000 nM
[2]
  Kd: 200 to 5000 nM

## O=c1cc(COCc2cccc(Cl)c2Cl)[nH]c2nc(-c3ccccc3)nn12 [1-145]
[1]
  Kd: 500 to 100000 nM
[2]
  Kd: 200 to 5000 nM

## CCC(OCc1cc(=O)n2nc(-c3ccccc3)nc2[nH]1)c1ccccc1Cl (stereo not shown) [1-153]
[1]
  Kd: 500 to 100000 nM
[2]
  Kd: 1 to 200 nM

## O=c1cc(COCc2ccccc2Cl)[nH]c2nc(-c3ccccc3)nn12 [1-154]
[1]
  Kd: 500 to 100000 nM
[2]
  Kd: 1 to 200 nM

## Cc1c(Cl)cccc1OC(C)(C)COCc1cc(=O)n2nc(-c3ccccc3)nc2[nH]1 [27-3]
[1]
  Kd: 500 to 100000 nM
[2]
  Kd: 1 to 200 nM

## Cc1ccccc1OC(C)(C)COCc1cc(=O)n2nc(-c3ccccc3)nc2[nH]1 [27-4]
[1]
  Kd: 500 to 100000 nM
[2]
  Kd: 1 to 200 nM

## O=c1cc(COCC(O)c2ccccc2Cl)[nH]c2nc(-c3ccccc3)nn12 (stereo not shown) [34-1]
[1]
  Kd: 500 to 100000 nM
[2]
  Kd: > 5000 nM

## O=c1cc(COC(CO)c2ccccc2Cl)[nH]c2nc(-c3ccccc3)nn12 (stereo not shown) [34-2]
[1]
  Kd: 500 to 100000 nM
[2]
  Kd: > 5000 nM

## CC(Cc1cc(=O)n2nc(-c3ccccc3)nc2[nH]1)(Oc1cccc(Cl)c1)C(=O)O (stereo not shown) [35-4]
[1]
  Kd: 500 to 100000 nM
[2]
  Kd: > 5000 nM

## CC(Cc1cc(=O)n2nc(-c3ccccc3)nc2[nH]1)(Oc1cccc(Cl)c1)C(=O)NCC1(c2ccccc2Cl)CC1 (stereo not shown) [35-5]
[1]
  Kd: 500 to 100000 nM
[2]
  Kd: 1 to 200 nM

## COC(C)(Cc1cc(=O)n2nc(-c3ccccc3)nc2[nH]1)C(=O)NCC1(c2ccc(Cl)cc2)CCC1 (stereo not shown) [36-2]
[1]
  Kd: 500 to 100000 nM
[2]
  Kd: 1 to 200 nM

## [2H]C([2H])([2H])OC(C(=O)NCC1(c2ccc(Cl)cc2)CCC1)(C([2H])([2H])[2H])C([2H])([2H])c1cc(=O)n2nc(-c3ccccc3)nc2[nH]1 (stereo not shown) [37-2]
[1]
  Kd: 500 to 100000 nM
[2]
  Kd: 1 to 200 nM
